From patent publication US20250282799A1, “SUBSTITUTED PYRIDO[4,3-d]PYRIMIDINES AS KRAS MODULATORS” (Alterome Therapeutics, Inc., priority 2023, published 2025)

Key:
[1] = tested on: KRAS G12V dependent lung adenocarcinoma cell line, NCI-H441; assay: Cellular pERK (Thr202/Tyr204) FRET/HTRF assay; type: cell-based; conditions: Homo sapiens
Outline: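 NCI-H441 cells (KRAS G12V) plated overnight at 37 °C, then exposed to compounds for 1 hr at 37 °C, 5% CO2; DMSO as negative control. Lysates read by Eu-cryptate/d2 sandwich FRET (665 nm) for ERK1/2 phosphorylated at Thr202/Tyr204; IC50 from curve fit.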

[2] = Pharmacokinetic evaluation, single dosing (oral and intravenous) in rats; type: in vivo, male Sprague-Dawley rats; set-up: unit not given here; conditions: rat, plasma
Protocol: Pharmacokinetic profile for test compound was measured by single dosing in male Sprague-Dawley rats. Animal weights were typically over 200 grams, and animals were allowed to acclimate to their new environment for at least 3 days prior to the initiation of any studies. One set of animals was dosed intravenous with test compound, 2 mg/kg in 20% PEG400, 10% HS-15 Solutol, 70% 50 mM citrate buffer (pH 4.0). Intravenous dosing solution concentration was 1.0 mg/mL. Time of blood sampling was 5 minutes, 15 minutes, 30 minutes, 1 hour, 2 hours, 4 hours, 8 hours, and 24 hours following intravenous dosing. Another set of animals was dosed orally with test compound, 30 mg/kg in 20% PEG400, 10% HS-15 Solutol, 70% 50 mM citrate buffer (pH 4.0). Oral dosing solution concentration was 3.0 mg/mL. Time of blood sampling was 15 minutes, 30 minutes, 1 hour, 2 hours, 4 hours, 8 hours, and 24 hours following oral dosing. Blood samples (˜0.2 mL/sample) were collected via jugular vein and placed in tubes containing Heparin-Na. The blood samples in tubes were mixed and then placed on wet ice prior to centrifugation for plasma. The blood samples were centrifuged at 4000 g for 5 minutes at 4° C. to obtain plasma. The obtained plasma was separated and stored frozen at approximately −80° C.
All the plasma samples were analyzed using a Shimadzu (DGU-405) HPLC with an API 6500+MS/MS system following the manufacturer's instructions. All the analytes were detected with positive-mode electrospray ionization (ES+). A standard curve for each test compound was generated and used to measure test compound concentrations in the rat plasma samples. Based on the time course sampling, an area under the curve (AUC) was calculated for the oral group and intravenous group. The percentage of rat bioavailability is calculated based on the equation shown below.
where F is bioavailability, AUCPO is area under curve of oral dosing, AUCIV is area under curve of intravenous dosing, DoseIV is the intravenous dose and DosePO is the oral dose. The oral dosing for the experiments presented in Table 5 was performed at 10 mg/kg unless noted otherwise.

KRAS (G12D)/CRAF = KRAS (G12D)/CRAF (Homo sapiens (Human), UniProt P01116, G12D); assay: TR-FRET biochemical KRAS:CRAF protein:protein interaction assay, KRAS (G12D); type: binding; conditions: GMPPNP loaded Biotin-KRAS (G12D), FLAG CRAF RBD; read-out: TR-Fret_PPI KRAS (G12D)/CRAF IC50
KRAS (G12D)/CRAF, sequence (P01116-2 other isoform, or with tags, fused parts or gaps G12D): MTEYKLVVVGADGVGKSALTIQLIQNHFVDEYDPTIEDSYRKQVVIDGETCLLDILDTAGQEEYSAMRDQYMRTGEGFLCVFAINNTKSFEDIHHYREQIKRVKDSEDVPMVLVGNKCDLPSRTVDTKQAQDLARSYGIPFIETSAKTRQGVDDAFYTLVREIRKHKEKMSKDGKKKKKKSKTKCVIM
Protocol: (§1) The effect of test compounds on KRAS and CRAF protein: protein interaction (PPI) was measured by time resolved fluorescence resonance energy transfer (TR-FRET) Ras binding domain (RBD) assay, which uses a signal generated through fluorescent resonance energy transfer between a donor and an acceptor molecule when in close proximity to each other. Interference from buffer, media, etc. is reduced by dual-wavelength detection; the energy pulse from the excitation source is followed by a time delay, which allows interfering short-lived fluorescence to decay (Degorce et al. 2009).
(§2) The KRAS: CRAF PPI assay can be utilized to identify KRAS ‘ON’ state inhibitors, as the KRAS protein is loaded with GMPPNP (a non-hydrolyzable GTP analog), which represents the active KRAS ‘ON’ state. FLAG-tagged CRAF RBD binding to the GMPPNP loaded biotin-tagged KRAS will result in a fluorescence energy transfer from the donor (Tb-anti-FLAG, emission 620 nm) to the acceptor (SA-XL665, emission 665 nm). Disruption of KRAS and CRAF binding will reduce the TR-FRET signal.
(§3) Test compound was dissolved in DMSO to create a 1 mM stock solution. A 45 μL volume of stock solution was transferred to a 384well polypropylene plate. A 3fold, 10point dilution was performed by transferring 15 μL of test compound solution into 30 μL of DMSO.
(§4) Assay buffer A was prepared with […] Hepes, pH7.3, 0.002% Tween 20, 0.1% BSA, […] NaCl, 5 mM MgCl2, and 10 uM GMP-PNP. 4× KRAS Solution was prepared with 80 nM of Biotin-KRAS (G12D/V), GMPPNP loaded or Biotin-KRAS (WT), GMPPNP loaded protein in assay buffer A. 4× Raf RBD Solution was prepared with 400 nM FLAG CRAF RBD in assay buffer A. 2× Detection Mixture was prepared with 2 nM Tb-anti-FLAG antibody and 10 nM and 10 nM SA-XL665 in assay buffer A.
(§5) A volume of 100 nL of 100× test compound working solution or DMSO vehicle control solution was dispensed to each well (duplicate for each concentration) of a 384-well ProxiPlate Plus assay plate. A volume of 2.5 μL of 4× KRAS Solution was added to each well of the assay plate for a final concentration of 20 nM Biotin-KRAS (G12D/V),GMPPNP loaded or 20 nM Biotin-KRAS (WT), GMPPNP. For low control, add 2.5 μL of assay buffer (no KRAS protein). Pre-incubate assay plate for 30 minutes at room temperature. Following pre-incubation of test compound or DMSO with Biotin-KRAS (G12D/V),GMPPNP loaded or Biotin-KRAS (WT),GMPPNP, a volume of 2.5 μL of 4× FLAG cRAF RBD Solution was added to each well of the assay plate for a final concentration of 100 nM FLAG CRAF RBD. The assay plate was subjected to centrifuge at 1000 rpm for 1 minute and pre-incubate assay plate for 150 minutes at room temperature. Following the pre-incubation with FLAG cRAF RBD, a volume of 5 μl of 2× Detection Mixture was added to each well of the assay plate for a final concentration of 1 nM Tb-anti-FLAG and 5 nM SA-XL665. The assay plate was centrifuged at 1000 rpm for 1 minute and incubated for 90 minutes at room temperature. TR-FRET signal was measured on a BioTek Synergy Neo2 microplate reader (excitation at 340 nm, emission at 665 nn and 620 nm).
(§6) TR-FRET ratios were calculated by dividing the acceptor emission value (665 nm) by the donor emission value (620 nm) for each sample.
(§7) Percent inhibition was calculated by multiplying the normalized TR-FRET ratio by 100, where TR-FRET ratio^HIGH was the TR-FRET ratio obtained from wells with 1% DMSO and complete reaction mixture, TR-FRET ratio^LOW was the ratio obtained from wells with 1% DMSO and reaction mixture without KRAS protein and TR-FRET ratio^SAMPLE was the TR-FRET ratio from wells with test compound and complete reaction mixture. The IC50 values were calculated from normalized TR-FRET ratios with the Levenberg-Marquardt 4 parameter fitting procedure.
(§8) This assay quantifies the interaction of a KRAS mutant protein (e.g., G12V) with the CRAF Ras-binding domain (RBD). […]

KRAS (G12V)/CRAF = KRAS (G12V)/CRAF (Homo sapiens (Human), UniProt P01116, G12V); assay: TR-FRET biochemical KRAS:CRAF protein:protein interaction assay, KRAS (G12V); type: binding; conditions: GMPPNP loaded Biotin-KRAS (G12V), FLAG CRAF RBD; read-out: TR-Fret_PPI KRAS (G12V)/CRAF IC50
KRAS (G12V)/CRAF, sequence (P01116-2 other isoform, or with tags, fused parts or gaps G12V): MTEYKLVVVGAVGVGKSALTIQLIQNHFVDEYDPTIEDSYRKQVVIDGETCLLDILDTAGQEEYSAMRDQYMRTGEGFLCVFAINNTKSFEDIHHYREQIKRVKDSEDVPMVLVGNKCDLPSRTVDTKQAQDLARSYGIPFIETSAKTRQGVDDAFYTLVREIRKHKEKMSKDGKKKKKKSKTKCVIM
Protocol: as §1, §2, §3, §4, §5, §6, §7, §8

[3] = NCI-H441, cellular pERK (Thr202/Tyr204) HTRF, NCI-H441 cells
[4] = NCI-H441, pERK HTRF, NCI-H441 cells (KRAS G12V)

Row | SMILES | IC50 [1, 3] | IV (dose 2 mg/kg) (AUC/D) (h*mg/mL) [2] | PO (dose 10 mg/kg) (AUC/D) (h*mg/mL) [2] | IC50 [1, 4] | PO (AUC/D) (h*mg/mL), dose 30 mg/kg [2] | IC50 (KRAS (G12D)/CRAF) | IC50 (KRAS (G12V)/CRAF)
1 | [2H]C([2H])(Oc1nc(N2CCCC[C@H]3[C@H](F)[C@H]32)c2cnc(-c3cc(O)cc4ccc(F)c(C#C)c34)c(F)c2n1)[C@@]12CCCN1C[C@H](F)C2 [Example 216, 5-ethynyl-6-fluoro-4-(8-fluoro-4-((1S,7R,8S)-8-fluoro-2-azabicyclo[5.1.0]octan-2-yl)-2-(((2R,7aS)-2-fluorotetrahydro-1H-pyrrolizin-7a(5H)-yl)methoxy-d2)pyrido[4,3-d]pyrimidin-7-yl)naphthalen-2-ol] | < 0.05 µM | 96 | 0.0 |  |  |  | 
2 | [2H]C([2H])(Oc1nc(N2CCCO[C@H]3[C@H](F)[C@H]32)c2cnc(-c3cc(N)cc4cc(F)c(F)c(C#C)c34)c(F)c2n1)[C@@]12CCCN1C[C@H](F)C2 [Example 24, 5-Ethynyl-6,7-difluoro-4-(8-fluoro-4-((1R,7S,8R)-8-fluoro-2-oxa-6-azabicyclo[5.1.0]octan-6-yl)-2-(((2R,7aS)-2-fluorotetrahydro-1H-pyrrolizin-7a(5H)-yl)methoxy-d2)pyrido[4,3-d]pyrimidin-7-yl)naphthalen-2-amine] |  | 405 | 35 | < 0.05 µM |  |  | 
3 | [2H]C([2H])(Oc1nc(N2CCOC[C@H]3[C@H](F)[C@H]32)c2cnc(-c3cc(O)cc4ccc(F)c(C#C)c34)c(F)c2n1)[C@@]12CCCN1C[C@H](F)C2 [Example 217, 5-Ethynyl-6-fluoro-4-(8-fluoro-4-((1S,7S,8S)-8-fluoro-5-oxa-2-azabicyclo[5.1.0]octan-2-yl)-2-(((2R,7aS)-2-fluorotetrahydro-1H-pyrrolizin-7a(5H)-yl)methoxy-d2)pyrido[4,3-d]pyrimidin-7-yl)naphthalen-2-ol] | < 0.05 µM | 143 |  |  | 0.5 |  | 
4 | [2H]C([2H])(Oc1nc(N2CCOC[C@H]3[C@H](F)[C@H]32)c2cnc(-c3cc(O)cc4ccc(Cl)c(C#C)c34)c(F)c2n1)[C@@]12CCCN1C[C@H](F)C2 [Example 260, 6-chloro-5-ethynyl-4-(8-fluoro-4-((1S,7S,8S)-8-fluoro-5-oxa-2-azabicyclo[5.1.0]octan-2-yl)-2-(((2R,7aS)-2-fluorotetrahydro-1H-pyrrolizin-7a(5H)-yl)methoxy-d2)pyrido[4,3-d]pyrimidin-7-yl)naphthalen-2-ol] | < 0.05 µM | 129 | 0.4 |  |  |  | 
5 | [2H]C([2H])([2H])Oc1c(F)ccc2cc(N)cc(-c3ncc4c(N5CCOC[C@H]6[C@H](F)[C@H]65)nc(OC([2H])([2H])[C@@]56CCCN5C[C@H](F)C6)nc4c3F)c12 [Example 90, 6-Fluoro-4-(8-fluoro-4-((1S,7S,8S)-8-fluoro-5-oxa-2-azabicyclo[5.1.0]octan-2-yl)-2-(((2R,7aS)-2-fluorotetrahydro-1H-pyrrolizin-7a(5H)-yl)methoxy-d2)pyrido[4,3-d]pyrimidin-7-yl)-5-(methoxy-d3)naphthalen-2-amine] |  | 1086 |  | < 0.05 µM | 352 |  | 
6 | [2H]C([2H])(Oc1nc(N2CCOC[C@@H]3[C@@H](F)[C@@H]32)c2c(OC)nc(-c3cc(N)cc4ccc(F)c(C#C)c34)c(F)c2n1)[C@@]12CCCN1C[C@H](F)C2 [Example 223, 5-ethynyl-6-fluoro-4-(8-fluoro-4-((1R,7R,8R)-8-fluoro-5-oxa-2-azabicyclo[5.1.0]octan-2-yl)-2-(((2R,7aS)-2-fluorotetrahydro-1H-pyrrolizin-7a(5H)-yl)methoxy-d2)-5-methoxypyrido[4,3-d]pyrimidin-7-yl)naphthalen-2-amine] | 0.5 to 10 µM |  |  |  |  | 3 µM | 3 µM
7 | [2H]C([2H])(Oc1nc(N2CCCC[C@@H]3[C@@H](F)[C@@H]32)c2cnc(-c3cc(N)cc4cc(F)c(F)c(C#C)c34)c(F)c2n1)[C@@]12CCCN1C[C@H](F)C2 [Example 15, 5-Ethynyl-6,7-difluoro-4-(8-fluoro-4-((1R,7S,8R)-8-fluoro-2-azabicyclo[5.1.0]octan-2-yl)-2-(((2R,7aS)-2-fluorotetrahydro-1H-pyrrolizin-7a(5H)-yl)methoxy-d2)pyrido[4,3-d]pyrimidin-7-yl)naphthalen-2-amine] |  |  |  | 0.5 to 10 µM |  | ≥ 10 µM | ≥ 10 µM
8 | [2H]C([2H])(Oc1nc(N2CCCO[C@@H]3[C@@H](Cl)[C@@H]32)c2cnc(-c3cc(N)cc4ccc(F)c(C#C)c34)c(F)c2n1)[C@@]12CCCN1C[C@H](F)C2 [Example 317, 4-(4-((1S,7R,8S)-8-chloro-2-oxa-6-azabicyclo[5.1.0]octan-6-yl)-8-fluoro-2-(((2R,7aS)-2-fluorotetrahydro-1H-pyrrolizin-7a(5H)-yl)methoxy-d2)pyrido[4,3-d]pyrimidin-7-yl)-5-ethynyl-6-fluoronaphthalen-2-amine] | 0.05 to 0.5 µM |  |  |  |  | 3 µM | 3 µM
